The supplement of paper PMC4862054

Assays:
Assay in all cases: normalised viability (% of control), CellTiter-Blue; higher = more viable cells (about 100 = DMSO control)
Conditions in all cases: incubation time: 72 h
[1] = system: MDA-MB-436
Summary of the method: (§1)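 The reported figure is normalised viability at a single listed concentration of the series. Breast cancer cell lines (20 µl suspension) went onto 384-well plates holding compound in 5 µl medium for 72 h. CellTiter-Blue (2.5 µl, 2 h, 37 °C) was read by fluorescence at 560/590 nm, and each plate was scaled to vehicle at 100 and a positive kill control at 0.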

[2] = system: Hs578T
Summary of the method: as §1

[3] = system: MDA-MB-231
Summary of the method: as §1

[4] = system: HCC1937
Summary of the method: as §1

[5] = system: MDA-MB-468
Summary of the method: as §1

[6] = system: BT-549
Summary of the method: as §1

[7] = system: HCC1599
Summary of the method: as §1

[8] = system: DU-4475
Summary of the method: as §1

[9] = system: HDQ-P1
Summary of the method: as §1

[10] = system: BT-474
Summary of the method: as §1

[11] = system: CAL-85-1
Summary of the method: as §1

[12] = system: CAL-51
Summary of the method: as §1

[13] = system: CAL-148
Summary of the method: as §1

[14] = system: MDA-MB-453
Summary of the method: as §1

[15] = system: MDA-MB-436; remark: listed apart in the source
Summary of the method: as §1

[16] = system: Hs578T; remark: listed apart in the source
Summary of the method: as §1

[17] = system: SK-BR-3
Summary of the method: as §1

[18] = system: MDA-MB-231; remark: listed apart in the source
Summary of the method: as §1

[19] = system: HCC1937; remark: listed apart in the source
Summary of the method: as §1

[20] = system: MDA-MB-468; remark: listed apart in the source
Summary of the method: as §1

[21] = system: BT-549; remark: listed apart in the source
Summary of the method: as §1

[22] = system: HCC1599; remark: listed apart in the source
Summary of the method: as §1

[23] = system: CAL-120
Summary of the method: as §1

[24] = system: MFM-223
Summary of the method: as §1

[25] = system: HCC1143
Summary of the method: as §1

[26] = system: HDQ-P1; remark: listed apart in the source
Summary of the method: as §1

[27] = system: CAL-85-1; remark: listed apart in the source
Summary of the method: as §1

[28] = system: CAL-51; remark: listed apart in the source
Summary of the method: as §1

[29] = system: MDA-MB-453; remark: listed apart in the source
Procedure: (§2)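 DSRT, CellTiter-Blue viability, 72 h incubation. Signal is normalised to DMSO and benzethonium chloride controls. Value is the normalised response at dose 7.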

[30] = system: DU-4475; remark: listed apart in the source
Procedure: as §2

[31] = system: HDQ-P1; remark: listed apart in the source
Procedure: as §2

[32] = system: CAL-85-1; remark: listed apart in the source
Procedure: as §2

[33] = system: CAL-51; remark: listed apart in the source
Procedure: as §2

[34] = system: CAL-148; remark: listed apart in the source
Procedure: as §2

COc1ccc(-c2ccc3c(N4CCOC[C@@H]4C)nc(N4CCOC[C@@H]4C)nc3n2)cc1CO [AZD8055]
normalised viability ([1]; 10000 nM): 40.1% | normalised viability ([2]; 10000 nM): 17.6% | normalised viability ([3]; 10000 nM): 22.7% | normalised viability ([4]; 10000 nM): 40.3% | normalised viability ([5]; 10000 nM): 21.4% | normalised viability ([6]; 10000 nM): 14.4% | normalised viability ([7]; 10000 nM): 43.4% | normalised viability ([8]; 100 nM): 58.6% | normalised viability ([9]; 100 nM): 45.6% | normalised viability ([10]; 10000 nM): 16.9% | normalised viability ([11]; 100 nM): 46.3% | normalised viability ([12]; 100 nM): 27.3% | normalised viability ([13]; 100 nM): 30.4% | normalised viability ([14]; 3 nM): 94.6% | normalised viability ([15]; 10 nM): 98.3% | normalised viability ([16]; 10 nM): 91.1% | normalised viability ([17]; 10 nM): 72.5% | normalised viability ([18]; 10 nM): 80.7% | normalised viability ([19]; 10 nM): 77.2% | normalised viability ([20]; 10 nM): 98.2% | normalised viability ([21]; 10 nM): 92.5% | normalised viability ([22]; 10 nM): 89.3% | normalised viability ([23]; 10 nM): 91.4% | normalised viability ([24]; 10 nM): 71.9% | normalised viability ([25]; 10 nM): 100% | normalised viability ([26]; 3 nM): 83.4% | normalised viability ([27]; 3 nM): 85.1% | normalised viability ([28]; 3 nM): 88.2% | normalised viability ([29]; 1000 nM): 14.4% | normalised viability ([30]; 1000 nM): 15.2% | normalised viability ([31]; 1000 nM): 27.2% | normalised viability ([32]; 1000 nM): 23.8% | normalised viability ([33]; 1000 nM): 10.8% | normalised viability ([34]; 1000 nM): 5.6%

C[C@]12CC[C@H](O)CC1=CC[C@@H]1[C@@H]2CC[C@]2(C)C(c3cccnc3)=CC[C@@H]12 [Abiraterone]
normalised viability ([1]; 5000 nM): 107% | normalised viability ([2]; 5000 nM): 110% | normalised viability ([3]; 5000 nM): 131% | normalised viability ([4]; 5000 nM): 101% | normalised viability ([5]; 5000 nM): 111% | normalised viability ([6]; 5000 nM): 119% | normalised viability ([7]; 5000 nM): 120% | normalised viability ([8]; 50 nM): 90.2% | normalised viability ([9]; 50 nM): 110% | normalised viability ([10]; 5000 nM): 98.8% | normalised viability ([11]; 50 nM): 96.4% | normalised viability ([12]; 50 nM): 104% | normalised viability ([13]; 50 nM): 90.7% | normalised viability ([14]; 1.5 nM): 104% | normalised viability ([15]; 5 nM): 101% | normalised viability ([16]; 5 nM): 101% | normalised viability ([17]; 5 nM): 97.7% | normalised viability ([18]; 5 nM): 86.8% | normalised viability ([19]; 5 nM): 110% | normalised viability ([20]; 5 nM): 105% | normalised viability ([21]; 5 nM): 99.7% | normalised viability ([22]; 5 nM): 104% | normalised viability ([23]; 5 nM): 81% | normalised viability ([24]; 5 nM): 102% | normalised viability ([25]; 5 nM): 67.2% | normalised viability ([26]; 1.5 nM): 104% | normalised viability ([27]; 1.5 nM): 93.2% | normalised viability ([28]; 1.5 nM): 104% | normalised viability ([29]; 500 nM): 92.3% | normalised viability ([30]; 500 nM): 94.2% | normalised viability ([31]; 500 nM): 112% | normalised viability ([32]; 500 nM): 77.2% | normalised viability ([33]; 500 nM): 103% | normalised viability ([34]; 500 nM): 94.7%
